How the values were obtained:
[1] = test system: Cochliobolus sativus (COCHSA); experiment: Fungicidal activity, spot blotch of barley (COCHSA), greenhouse barley plants; format: in vivo; details: One-Day Protectant, barley (variety Harrington)
Experimental: Spot Blotch of Barley (Cochliobolus sativus: anamorph Helmithosporium sativum; Bayer code COCHSA): Barley plants (variety Harrington) were grown from seed in a greenhouse in soil-less Metro mix until the first leaf was fully emerged, with 7-10 seedlings per pot. These plants were inoculated with an aqueous spore suspension of COCHSA prior to fungicide treatments. After inoculation the plants were kept in 100% relative humidity one day to permit spores to germinate and infect the leaf. The plants were then transferred to a greenhouse for disease to develop. The following table presents the activity of typical compounds of the present disclosure when evaluated in these experiments. The effectiveness of the test compounds in controlling disease was determined by assessing the severity of disease on treated plants, then converting the severity to percent control based on the level of disease on untreated, inoculated plants. • In each case of Table II the rating scale is as follows: […]

[2] = test system: Mycosphaerella graminicola; anamorph: Septoria tritici (SEPTTR); experiment: Fungicidal activity, leaf blotch of wheat (SEPTTR), greenhouse wheat plants; format: in vivo; details: wheat (variety Yuma)
Experimental: Leaf Blotch of Wheat (Mycosphaerella graminicola; anamorph: Septoria tritici; Bayer code […]): Wheat plants (variety Yuma) were grown from seed in a greenhouse in 50% mineral soil/50% soil-less Metro mix until the first leaf was fully emerged, with 7-10 seedlings per pot. These plants were inoculated with an aqueous spore suspension of […] either prior to or after fungicide treatments. After inoculation the plants were kept in 100% relative humidity (one day in a dark dew chamber followed by two to three days in a lighted dew chamber) to permit spores to germinate and infect the leaf. The plants were then transferred to a greenhouse for disease to develop. The following table presents the activity of typical compounds of the present disclosure when evaluated in these experiments. The effectiveness of the test compounds in controlling disease was determined by assessing the severity of disease on treated plants, then converting the severity to percent control based on the level of disease on untreated, inoculated plants. • In each case of Table II the rating scale is as follows: […]

[3] = test system: Puccinia recondita f. sp. tritici (PUCCRT); experiment: Fungicidal activity, wheat leaf rust (PUCCRT), greenhouse wheat plants; format: in vivo; details: One-Day Protectant, wheat (variety Yuma)

## CC(C)C1C2CCC1c1c(NC(=O)c3nccnc3C(F)(F)F)cccc12 (centres unmarked) [Compound 9, 3-Trifluoromethyl-pyrazine-2-carboxylic acid (9-isopropyl-1,2,3,4-tetrahydro-1,4-methano-naphthalen-5-yl)-amide]
other
  melting point: 173 to 177 °C
[1]
  COCHSA 200 PPM 1DP (disease control rating): A (76-100)
[2]; One-Day Protectant
  SEPTTR 200 PPM 1DP (disease control rating): A (76-100)
[2]; Three-Day Curative
  SEPTTR 200 PPM 3DC (disease control rating): B (51-75)
[3]
  PUCCRT 200 PPM 1DP (disease control rating): A (76-100)

— US8859558B2, “Pyrazinyl carboxamides as fungicides” (Dow AgroSciences, LLC., priority 2010, dated 2014)
